Reference: patent US9155693B2, “Solubilized magnolol analogs” (Colgate-Palmolive Company, priority 2011, dated 2015)

Assays:
[1] = assay type: physicochemical
Description: The PPG-1-PEG-9 lauryl glycol ether is capable of solubilizing up to 100 g per liter of neat propyl magnolol or isopropyl magnolol or up to 50 g per liter of butyl magnolol or isobutyl magnolol. In certain embodiments, the amount of PPG-1-PEG-9 lauryl glycol ether is at least 10 times the weight of the propyl magnolol or isopropyl magnolol in the composition. In certain embodiments, the amount of PPG-1-PEG-9 lauryl glycol ether is at least 20 times the weight of butyl or isobutyl magnolol in the composition.
PPG-1-PEG-9 lauryl glycol ether is available as Eumulgin™ L from Cognis Corporation.

[2] = Solubility of magnolol analogs in the combination of PPG-1-PEG-9 lauryl glycol ether, coceth-7 and PEG-40 hydrogenated castor oil (Eumulgin HPS); assay type: physicochemical; settings: PPG-1-PEG-9 lauryl glycol ether in combination with coceth-7 and PEG-40 hydrogenated castor oil (Eumulgin HPS)
Description: The PPG-1-PEG-9 lauryl glycol ether can also be included in combination with coceth-7 and PEG-40 hydrogenated castor oil. This combination is available as Eumulgin™ HPS from Cognis Corporation. When this combination is used, the solubility stays the same except for butyl magnolol. This combination solubilizes up to 100 g per liter of butyl magnolol as compared to up to 50 g per liter for PPG-1-PEG-9 lauryl glycol ether alone. In certain embodiments, the amount of this combination is at least 10 times the weight of butyl magnolol.

amount solubilized by PPG-1-PEG-9 lauryl glycol ether [1]	SMILES	amount solubilized by the combination [2]
up to 100 g per liter	CCCc1ccc(O)c(-c2cc(CCC)ccc2O)c1 [propyl magnolol, 5,5′-di-n-propylbiphenyl-2,2′-diol]	
up to 100 g per liter	CC(C)c1ccc(O)c(-c2cc(C(C)C)ccc2O)c1 [isopropyl magnolol, 5,5′-di-isopropylbiphenyl-2,2′-diol]	
up to 50 g per liter	CC(C)Cc1ccc(O)c(-c2cc(CC(C)C)ccc2O)c1 [isobutyl magnolol, 5,5′-di-isobutylbiphenyl-2,2′-diol]	

SMILES	amount solubilized by PPG-1-PEG-9 lauryl glycol ether [1]	amount solubilized by the combination [2]
CCCCc1ccc(O)c(-c2cc(CCCC)ccc2O)c1 [butyl magnolol, 5,5′-di-n-butylbiphenyl-2,2′-diol]	up to 50 g per liter	up to 100 g per liter
